From patent publication US20220175768A1, “FGFR TYROSINE KINASE INHIBITORS FOR THE TREATMENT OF UROTHELIAL CARCINOMA” (Janssen Pharmaceutica NV, priority 2019, published 2022)
Where two headings read alike, the source gives them in different places.

Tests used:
[1] = system: metastatic or surgically unresectable urothelial cancer harboring select FGFR genetic alterations; settings: for ORR, BIRC assessment / ORR, investigator assessment: chemotherapy-refractory patients in Regimen 3
Text: The study comprises a Screening Phase (molecular screening at any time prior to first dose and study screening within 30 days of first dose), a treatment phase, and a post-treatment follow-up phase. The treatment phase comprises the period from first dose until the end-of-treatment visit. The follow-up phase extends until the subject has died, withdraws consent, is lost to follow-up, or the end of study, whichever comes first.
Included patients were adults with measurable urothelial cancer per Response Evaluation Criteria in Solid Tumors version 1.1.
Patients were required to have at least 1 FGFR2/FGFR3 mutation or fusion per central lab testing of RNA from formalin-fixed, paraffin-embedded tumor samples, using a custom reverse transcriptase polymerase chain reaction assay.
The primary end point of this study is Objective Response Rate to the selected regimen (Regimen 3).
Secondary end points include progression-free survival (PFS), response duration, Overall Survival, safety, response rate in biomarker-specific subgroups, and pharmacokinetics.
The study was designed to enroll 180 patients with specified FGFR alterations. Of these, ≥88 were required in the selected regimen. […] Responses were assessed by investigators and an independent radiological review committee. Progression-free survival and overall survival were estimated using Kaplan-Meier product limit method. Data from patients who were progression free and alive or with unknown status were censored at last tumor assessment. Efficacy end points were analysed at primary analysis cut-off.

serum phosphate = assay: Pharmacodynamics: serum phosphate level; assay type: in vivo, human; settings: consequence of FGFR inhibition
Text: To manage phosphate elevation, phosphate binders were permitted. Avoid concomitant use with agents that can alter serum phosphate levels before the initial dose increase period based on serum phosphate levels.

[2] = Effect of food (high-fat and high-calorie meal) on pharmacokinetics in healthy subjects; assay type: in vivo, human
in vitro = in vitro ADME; settings: human
[3] = Excretion following a single oral dose of radiolabeled erdafitinib; assay type: in vivo, human
[4] = human, in vivo
[5] = 187 patients with cancer; large effect i.e. >20 ms
[6] = Chemotherapy-refractory patients in Regimen 3 (N = 87)
[7] = Regimen 1, 10 mg intermittent (n = 33)
[8] = Regimen 2, 6 mg continuous (n = 78)
[9] = Regimen 3, of 97 patients with ≥1 postbaseline disease evaluation

SMILES: COc1cc(OC)cc(N(CCNC(C)C)c2ccc3ncc(-c4cnn(C)c4)nc3c2)c1 [erdafitinib, N-(3,5-dimethoxy-phenyl)-N′-(1-methylethyl)-N-[3-(1-methyl-1H-pyrazol-4-yl)quinoxalin-6-yl]ethane-1,2-diamine]
- Objective response rate per investigator assessment ([1]; 8 mg non-uptitrated continuous dose regimen, Regimen 3): (34.5) %
- Objective response rate per investigator assessment ([1]; 8 mg uptitrated to 9 mg continuous dose regimen, Regimen 3): (48.8) %
- Objective response rate per investigator assessment ([1]; Bone metastases, Regimen 1, 10 mg intermittent): (17) %
- Objective response rate per investigator assessment ([1]; Bone metastases, Regimen 2, 6 mg continuous): (40) %
- Objective response rate per investigator assessment ([1]; Bone metastases, Regimen 3, 8 mg continuous): (31.8) %
- Objective response rate per investigator assessment ([1]; Chemotherapy-naïve, Regimen 1, 10 mg intermittent): (25) %
- Objective response rate per investigator assessment ([1]; Chemotherapy-naïve, Regimen 2, 6 mg continuous): (0) %
- Objective response rate per investigator assessment ([1]; Chemotherapy-naïve, Regimen 3, 8 mg continuous): (41.7) %
- Complete response (CR), investigator assessment [1, 6]: 3.4%
- Partial response (PR), investigator assessment [1, 6]: 36.8%
- ORR, BIRC assessment ([1]; FGFR2 Fusion (N = 6)): 0%
- ORR, BIRC assessment ([1]; FGFR3 Fusion (N = 18)): 11.1%
- ORR, BIRC assessment ([1]; FGFR3 Point Mutation (N = 64)): 40.6%
- ORR, investigator assessment ([1]; FGFR3 Point Mutation (N = 64)): 48.4%
- ORR, investigator assessment ([1]; FGFR Fusion (N = 23)): 17.4%
- Objective response rate per investigator assessment ([1]; Liver metastases, Regimen 1, 10 mg intermittent): (27) %
- Objective response rate per investigator assessment ([1]; Liver metastases, Regimen 2, 6 mg continuous): (24) %
- Objective response rate per investigator assessment ([1]; Liver metastases, Regimen 3, 8 mg continuous): (35.0) %
- Objective response rate per investigator assessment ([1]; Lower tract disease, Regimen 1, 10 mg intermittent): (9) %
- Objective response rate per investigator assessment ([1]; Lower tract disease, Regimen 2, 6 mg continuous): (39) %
- Objective response rate per investigator assessment ([1]; Lower tract disease, Regimen 3, 8 mg continuous): (39.5) %
- Objective response rate per investigator assessment ([1]; Lung metastases, Regimen 1, 10 mg intermittent): (27) %
- Objective response rate per investigator assessment ([1]; Lung metastases, Regimen 2, 6 mg continuous): (41) %
- Objective response rate per investigator assessment ([1]; Lung metastases, Regimen 3, 8 mg continuous): (40.4) %
- Objective response rate per investigator assessment ([1]; Lymph node metastases only, Regimen 1, 10 mg intermittent): (0) %
- Objective response rate per investigator assessment ([1]; Lymph node metastases only, Regimen 2, 6 mg continuous): (67) %
- Objective response rate per investigator assessment ([1]; Lymph node metastases only, Regimen 3, 8 mg continuous): (33.3) %
- Objective response rate per investigator assessment ([1]; No. of lines of prior systemic therapy 0, Regimen 3, 8 mg continuous): (36.4) %
- Objective response rate per investigator assessment ([1]; No. of lines of prior systemic therapy 1, Regimen 3, 8 mg continuous): (37.8) %
- Objective response rate per investigator assessment ([1]; No. of lines of prior systemic therapy 2, Regimen 3, 8 mg continuous): (37.9) %
- Objective response rate per investigator assessment ([1]; No. of lines of prior systemic therapy 3, Regimen 3, 8 mg continuous): (60.0) %
- Objective response rate per investigator assessment ([1]; No. of lines of prior systemic therapy ≥4, Regimen 3, 8 mg continuous): (50.0) %
- Objective response rate per investigator assessment ([1]; Progressed or relapsed after chemotherapy, Regimen 1, 10 mg intermittent): (21) %
- Objective response rate per investigator assessment ([1]; Progressed or relapsed after chemotherapy, Regimen 2, 6 mg continuous): (37) %
- Objective response rate per investigator assessment ([1]; Progressed or relapsed after chemotherapy, Regimen 3, 8 mg continuous): (40.2) %
- Median progression-free survival per investigator assessment ([1]; Regimen 1): 4.8 months
- Overall survival rate at 12 months ([1]; Regimen 1): 31%
- Progression-free survival rate at 12 months ([1]; Regimen 1): 18%
- Complete response per investigator assessment [1, 7]: 1 no.
- Median time to response [1, 7]: 1.4 mo
- Median overall survival ([1]; Regimen 1, median follow-up 22.9 months): 7.5 months
- Median progression-free survival per investigator assessment ([1]; Regimen 2): 5.3 months
- Overall survival rate at 12 months ([1]; Regimen 2): 33%
- Progression-free survival rate at 12 months ([1]; Regimen 2): 11%
- Complete response per investigator assessment [1, 8]: 3 no.
- Median time to response [1, 8]: 1.4 mo
- Median overall survival ([1]; Regimen 2, median follow-up 18.5 months): 8.6 months
- Responses maintained for >12 months ([1]; Regimen 3): roughly 30%
- Survival rate at 12 months ([1]; Regimen 3): 55%
- Median time to response ([1]; Regimen 3, 8 mg continuous (n = 99)): 1.4 mo
- Median progression-free survival ([1]; Regimen 3, 8 mg per day continuous (FIG. 5A)): 5.5 months
- Median overall survival ([1]; Regimen 3, 8 mg per day continuous (FIG. 5B)): 13.8 months
- Patients who responded ([1]; Regimen 3, FGFR3-TACC3 V1 fusion (n=11)): 36.4%
- Disease stabilization lasting >6 months ([1]; Regimen 3, among 39 patients with stable disease): 33%
- Additional patients with stable disease ([1]; Regimen 3, patients with FGFR mutations (n=74)): 26 patients
- Progression-free survival rate at 12 months ([1]; Regimen 3, per investigator assessment): 19%
- Patients with maximum tumor reduction between 30% and 100% [1, 9]: 49%
- Patients with reduction in sum of target lesion diameters [1, 9]: 77%
- Objective response rate per investigator assessment ([1]; Upper tract disease, Regimen 1, 10 mg intermittent): (46) %
- Objective response rate per investigator assessment ([1]; Upper tract disease, Regimen 2, 6 mg continuous): (23) %
- Objective response rate per investigator assessment ([1]; Upper tract disease, Regimen 3, 8 mg continuous): (43.5) %
- Objective response rate per investigator assessment ([1]; With FGFR2/3 fusions, Regimen 1, 10 mg intermittent): (0) %
- Objective response rate per investigator assessment ([1]; With FGFR2/3 fusions, Regimen 2, 6 mg continuous): (17) %
- Objective response rate per investigator assessment ([1]; With FGFR3 mutations, Regimen 1, 10 mg intermittent): (22) %
- Objective response rate per investigator assessment ([1]; With FGFR3 mutations, Regimen 2, 6 mg continuous): (36) %
- Objective response rate per investigator assessment ([1]; With visceral metastases, Regimen 1, 10 mg intermittent): (29) %
- Objective response rate per investigator assessment ([1]; With visceral metastases, Regimen 2, 6 mg continuous): (32) %
- Objective response rate per investigator assessment ([1]; With visceral metastases, Regimen 3, 8 mg continuous): (38.5) %
- Objective response rate per investigator assessment ([1]; Without visceral metastases, Regimen 1, 10 mg intermittent): (0) %
- Objective response rate per investigator assessment ([1]; Without visceral metastases, Regimen 2, 6 mg continuous): (42) %
- Objective response rate per investigator assessment ([1]; Without visceral metastases, Regimen 3, 8 mg continuous): (47.6) %
- Effect on serum phosphate level (serum phosphate): increased serum phosphate level
- Effect of food on erdafitinib pharmacokinetics [2]: No clinically meaningful differences
- fraction unbound (in vitro): 0.002
- Dose recovered in feces [3]: approximately 69%
- Dose recovered in feces as unchanged [3]: 19%
- Dose recovered in urine [3]: 19%
- Dose recovered in urine as unchanged [3]: 13%
- Circulating metabolites in plasma [4]: no circulating metabolites
- Exposure (Cmax and AUC) versus dose [4]: increased proportionally
- Mean total apparent clearance (CL/F) [4]: 0.362 L/h
- Time to steady state [4]: 2 weeks
- Effect on the QTc interval [5]: no large effect
